Assay results as given in US5770617A, “Terbenzimidazoles useful as antifungal agents” (Rutgers, The State University of New Jersey, priority 1997, dated 1998).

Columns and labels:
[1] = test system: CPT-K5 (camptothecin-resistant variant of RPMI 8402); test: MTT cytotoxicity assay, CPT-K5; assay type: cell-based, human
Description: (§1) The cytotoxicity was determined using the as MTT-microtiter plate tetrazolinium cytotoxicity assay (MTA) following the procedures of F. Denizot et al., J. Immunol. Methods, 89, 271 (1986); J. Carmichael et al., Cancer Res, 47, 936 (1987) and T. J. Mosmann et al., Immunol. Methods, 65, 55 (1983). The human lymphoblast RPMI 8402 and its camptothecin-resistant variant cell line, CPT-K5 were provided by Dr. Toshiwo Andoh (Aichi Cancer Center Research Institute, Nagoya, Japan). See, for example, T. Andoh et al., Adv. Pharmacol., 29B, 93 (1994). The cytotoxicity assay was performed using 96-well microtiter plates. Cells were grown in suspension at 37 ° C. in 5% CO2 and maintained by regular passage in RPMI medium supplemented with 10% heat inactivated fetal bovine serum, L-glutamine (2 mM), penicillin (100 U/ml), and streptomycin (0.1 mg/ml). For determination of IC50, cells were exposed continuously with varying concentrations of drug concentrations and MTT assays were performed at the end of the fourth day.

[2] = test system: human epidermoid carcinoma KB3-1 cell line; test: MTT cytotoxicity assay, KB3-1; assay type: cell-based; details: KB 3-1, 96 h, read-out: Cytotoxicity IC50 KB3-1
Description: as §1
The drug sensitive human epidermoid carcinoma KB3-1 cell line (S. Aliyama et al., Somatic Cell Mol. Genet., 11, 117 (1985)) and its vinblastine-selected multidrug-resistant variant KBV-1 cells (D. W. Shen et al., Science, 32, 643 (1986)) were provided by Dr. Michael Gottesmann (National Cancer Institute, Bethesda, Md.). […]

[3] = target: T1, Aspergillus topoisomerase I (Aspergillus nidulans, UniProt Q5BGS7); test: Covalent transfer of 32P radioactivity from DNA to topoisomerase I (phosphate-transfer); assay type: biochemical; details: for phosphate transfer to 105 kDa Aspergillus topoisomerase I: Ho33342 1 mM
T1 construct: about 105 kDa by phosphate transfer
T1 sequence (Q5BGS7 1-871): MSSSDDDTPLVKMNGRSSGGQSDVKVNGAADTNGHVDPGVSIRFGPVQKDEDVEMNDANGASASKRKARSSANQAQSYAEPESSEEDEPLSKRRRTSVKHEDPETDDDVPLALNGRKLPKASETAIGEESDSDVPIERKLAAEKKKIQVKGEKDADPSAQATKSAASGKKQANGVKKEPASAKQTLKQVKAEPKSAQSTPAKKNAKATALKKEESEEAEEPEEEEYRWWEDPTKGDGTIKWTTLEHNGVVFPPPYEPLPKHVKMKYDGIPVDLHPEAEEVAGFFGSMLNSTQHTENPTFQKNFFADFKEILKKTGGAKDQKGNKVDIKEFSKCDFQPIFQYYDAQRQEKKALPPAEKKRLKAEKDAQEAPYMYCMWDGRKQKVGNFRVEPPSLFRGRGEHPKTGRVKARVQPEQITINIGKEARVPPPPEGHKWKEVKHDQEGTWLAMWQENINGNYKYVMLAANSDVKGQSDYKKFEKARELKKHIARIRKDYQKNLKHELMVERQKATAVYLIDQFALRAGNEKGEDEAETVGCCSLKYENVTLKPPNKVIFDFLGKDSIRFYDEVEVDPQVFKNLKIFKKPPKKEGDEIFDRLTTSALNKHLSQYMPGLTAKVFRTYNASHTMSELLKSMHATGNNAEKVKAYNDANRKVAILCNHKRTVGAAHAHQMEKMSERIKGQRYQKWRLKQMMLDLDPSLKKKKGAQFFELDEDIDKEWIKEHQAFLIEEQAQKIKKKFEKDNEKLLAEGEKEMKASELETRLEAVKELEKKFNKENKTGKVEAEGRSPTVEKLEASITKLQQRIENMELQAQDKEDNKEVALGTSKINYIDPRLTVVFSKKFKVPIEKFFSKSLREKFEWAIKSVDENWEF
Description: This phosphate-transfer method was a modification of the procedure described previously by T. C. Rowe et al., J. Biol. Chem., 259, 9177 (1984). Briefly, a 100-μl reaction mixture containing 10 mM Tris-HCl, pH 7.5, 1 mM MgCl2, 0.5 mM dithiothreitol, 30 μg/ml of bovine serum albumin, drug (camptothecin or Hoechst 33342) at an indicated concentration, 50 ng of YEpG DNA labeled with ^32 PdATP by the random primer method (Random Primed Labeling Kit, Boehringer Mannheim), and 300 units of human or Aspergillus topoisomerase I, was incubated at 37° C. for 10 minutes. The reactions were terminated by adding NaOH to 0.18M and EDTA to 2.5 mM. After neutralizing the reaction with a precalibrated amount of Tris-HCl, 9 μl of 0.1M CaCl2 and 7.5 μl of 20% SDS were added, and the volume was adjusted to 300 μl with H2 O.
Five units of Bal31 nuclease (New England, BioLabs) were added, and the sample was digested for 1 hour at 25° C. The reaction was terminated by extraction with 1 volume of phenol. The phenol phase was saved and back-extracted once with an equal volume of 10 mM Tris-HCl, pH 8.0, 1 mM EDTA. The protein-oligonucleotide complexes were then precipitated from the phenol phase by adding 10 volumes of ice-cold acetone and placing on ice for 10 minutes. The pellet was dissolved in SDS sample buffer and analyzed by SDS-PAGE. Gel drying and autoradiography were done as described (Hsiang et al., J. Biol. Chem., 260, 14873 (1985)).

[4] = test system: KBV-1 cells (multidrug-resistant variant, overexpress MDR1); details: cited from earlier work
[5] = test system: CPT-K5 (camptothecin-resistant variant of RPMI 8402); details: CPT-K5 versus RPMI 8402; reported by A. Y. Chen et al. 1993; cited from earlier work

SMILES	effect against camptothecin-resistant CPT-K5 cells, in words [1]	IC50 [2] [nM]	phosphate transfer to 105 kDa Aspergillus topoisomerase I [3]	phosphate transfer at higher concentrations ([3]; higher concentrations of Ho33342)	fold less cytotoxic to KB V-1 cells than to KB 3-1 ([4]; background, previously reported)	difference of IC50 for KB 3-1 as compared to KB V-1 cells ([4]; reported by A. Y. Chen et al. 1994)	relative resistance (ratio of IC50 of resistant versus drug sensitive cell line) [5]
c1ccc(-c2ccc3[nH]c(-c4ccc5[nH]c(-c6ccc7[nH]cnc7c6)nc5c4)nc3c2)cc1 [Compound 13, 5-Phenyl-2-[2'(benzimidazol-5"-yl)benzimidazol-5'-yl]benzimidazole]	effective	580	–	–	–	–	–
CCOc1ccc(-c2nc3cc(-c4nc5cc(N6CCN(C)CC6)ccc5[nH]4)ccc3[nH]2)cc1 [Hoechst 33342, 2'-(4-ethoxyphenyl)-5-(4-methyl-1-piperazinyl)-2,5'-bi-1H-benzimidazole]	effective	–	stimulated the phosphate transfer	progressively inhibited	approximately 130 fold	approximately two-orders of magnitude	–
CC[C@@]1(O)C(=O)OCc2c1cc1n(c2=O)Cc2cc3ccccc3nc2-1 [camptothecin]	–	–	stimulated the phosphate transfer	–	–	–	2,500 fold
